# Reference: article PMC12040169 (PLOS Biology, 2025)
# Test: in vitro
# Conditions: human, hela cells, % viability
row,SMILES,"viability at 28.5 h, 10 µM"
1,CN(Cc1ccccc1)C(=O)CCNS(=O)(=O)c1ccccc1 [CBK268585],103%
2,Nn1cnn2c(SCCSC3CCCCC3)nnc12 [CBK263192],108%
3,O=C(CN1CCN(CCN2C(=O)c3cccc4cccc(c34)C2=O)CC1)c1ccc(Cl)cc1 [CBK265363],78.1%
4,Cn1c(=O)cc(NCCCCCC(=O)O)[nH]c1=O [CBK286574],88.3%
5,CCc1ccc(CN2CCN(C(=O)c3ccncc3)CC2)cc1 [CBK301211G],92.7%
6,CS(=O)(=O)c1ccc(-n2ncc(-c3cccc(C(F)(F)F)c3)n2)cc1 [CBK112672],95.6%
7,COC(=O)c1cc(-c2cccnc2)[nH]n1 [CBK268945],104%
8,CC(C)C(NC(=O)C(C)(C)Oc1ccc(Cl)cc1)C(=O)O (stereo not shown) [CBK266138],94.5%
9,O=C(O)C1CCN(S(=O)(=O)c2ccccc2[N+](=O)[O-])CC1 [CBK265267],98.6%
10,C=CCNC(=O)N1CC[C@H]2CC(=O)N(Cc3ccc(OC)cc3)CC[C@H]2C1 [CBK288790],86.9%
11,CC(C)C(=O)N1CC2(CCN(CCS(=O)(=O)c3ccccc3)CC2)c2ccccc21 [CBK126726],95.4%
12,Cn1ncc2c(C(=O)O)cc(-c3ccccc3)nc21 [CBK288024],88.9%
13,CCOC(=O)c1cnc2ccc(OC)cc2c1NCCN1CCOCC1 [CBK304199],87.7%
14,COc1ccc(N(CC(=O)O)S(=O)(=O)c2ccccc2[N+](=O)[O-])c(OC)c1 [CBK262729],92.6%
15,O=C1CC(NCC2CCCO2)C(=O)N1c1ccc(N2C(=O)CC(NCC3CCCO3)C2=O)cc1 (stereo not shown) [CBK263962],89.9%
16,C=CCn1c(-c2sc(NC(=O)c3ccc(Cl)cc3F)nc2C)n[nH]c1=S [CBK295361],94.7%
17,CC(C)(C)OC(=O)NCc1ccc2cccc(OCCO)c2n1 [CBK000585],83.3%
18,COc1ccc(C(C)C)cc1-c1cncc(NCc2ccc3c(c2)OCO3)n1 [CBK065348],95.2%
19,O=C(CCCn1cccn1)N1CCOC(c2ccc(Cl)c(Cl)c2)C1 (stereo not shown) [CBK304640],98.5%
20,Cc1ccccc1OCc1nnc(SCC(=O)NC2CCCCC2)n1C [CBK265817],82.5%
21,COc1ccccc1-c1cnccc1-n1ccnc1 [CBK177153],100%
22,N#Cc1ccc(C(=O)Nc2ccc(N3CCNCC3)nc2)cc1 [CBK029435T],95.2%

row,SMILES,"viability at 28.5 h, 10 µM"
1,Cc1ccc2c(c1)OC1(CCN(C(=O)c3cc4c(C)nn(C)c4s3)CC1)CC2=O [CBK166037],79.5%
2,CCCOC1CCCN(Cc2c(C)n(CC(N)=O)c3ccccc23)C1 (stereo not shown) [CBK282797],99.2%
3,CCC(=O)N1CCCC1c1nc(C)c2c(n1)N(CCc1ccccc1OC)CCC2 (stereo not shown) [CBK286246],95.4%
4,COCC(C)NC(=O)Cn1c(-c2cccs2)cc2cccnc21 (stereo not shown) [CBK282557],81.8%
5,CCn1cc(CN2CCCN(C(=O)c3cccn(C)c3=O)CC2)cn1 [CBK305375],106%
6,CN1CCN(CCC(=O)Nc2ccc(Cl)c(C(F)(F)F)c2)CC1 [CBK265995],89.9%
7,O=C(NC1CCS(=O)(=O)C1)c1c[nH]c2ccccc2c1=O (stereo not shown) [CBK304295],88.7%
8,COc1ccc(Cn2nc(NC(=O)OC(C)C)c3ccccc32)cc1 [CBK048404],106%
9,O=C(Nc1nnc(C(F)(F)F)s1)c1ccc(F)c(Cl)c1 [CBK076831],92.2%
10,O=C(Cc1c[nH]c2ccccc12)N1CCC2(CCN(C(=O)CC3CCCCC3)C2)C1 (stereo not shown) [CBK131422],88.3%
11,CCn1c(C)nnc1SCCNC(=O)c1cnc(N(C)C)nc1C [CBK307135],93%
12,COc1cc(/N=C(\N)Nc2nc(=O)cc(CSc3ccc(C)cc3)[nH]2)cc(OC)c1 [CBK265532],83.4%
13,Cc1ccc(-c2csc3c(=O)[nH]c(N4CCCC(C(=O)NCC(N)=O)C4)nc23)cc1 (stereo not shown) [CBK215542],98.3%
14,COc1cc(NC(=O)C(C)Oc2ccc(Cl)cc2C)c(C(=O)O)cc1OC (stereo not shown) [CBK266430],86%
15,CN(Cc1cnn(C)c1)C(=O)c1ccc(Br)cc1O [CBK305742],104%
16,O=C(Nc1ccncc1)c1ccc(N2C(=O)c3ccccc3C2=O)cc1 [CBK287803],113%
17,O=C(c1cnc2ccccc2n1)N1CCN(CCc2ccccc2)CC1 [CBK200214],91%
18,O=C(O)[C@@H]1CCCN1C(=O)CCn1nnc2ccccc2c1=O [CBK286765],83.6%
19,O=C1NC2(CCN(C(=O)C(F)(F)F)CC2)Oc2ccccc21 [CBK283906],94%
20,C[C@]12C(=O)c3ccccc3NC(=O)C1[C@H]2C(=O)N1CCCCC1 (stereo partly shown) [CBK285281],92%
21,Cc1ccc(C(=O)N/C(=C\c2cccc([N+](=O)[O-])c2)c2n[nH]c(=S)[nH]2)cc1 [CBK263114],87%
22,CCc1cccc(NC(=O)CCc2ccccc2)c1 [CBK263637],112%

row,SMILES,"viability at 28.5 h, 10 µM"
1,Cc1ccc(-n2ncc3c(=O)n(Cc4ccccc4C)cnc32)c(C)c1 [CBK287695],107%
2,O=C(/C=C/c1c(Cl)cccc1Cl)Nc1ccc(S(=O)(=O)Nc2ncccn2)cc1 [CBK265490],98.8%
3,c1ccc(CSc2nnc3[nH]c4ccccc4n23)cc1 [CBK267841],91.9%
4,O=C(c1cc(S(=O)(=O)N2CCCCC2)c(Cl)cc1N1CCOCC1)N1CCOCC1 [CBK263400],82.5%
5,CC1CCc2nc(NC(=O)CC3CCN(C(=O)Cc4ccccc4)CC3)sc2C1 (stereo not shown) [CBK286509],86.4%
6,CCOc1ncccc1C(=O)NCc1ccc(COCC(F)(F)F)cc1 [CBK304526],97.8%
7,COc1nccc(N2CCN(C(=O)C3CC3)CC(O)C2)c1C#N (stereo not shown) [CBK306613],79.1%
8,Cc1ccc(CSCC(=O)NCCN2CCOCC2)cc1 [CBK269327],90.4%
9,CC(C)(C)NS(=O)(=O)c1ccc(CCC(=O)Nc2ccc(F)c(Cl)c2)cc1 [CBK266974],89.9%
10,Cc1nn(C)cc1S(=O)(=O)N1CCCC(c2cccc(Cc3ccc(Cl)cc3)n2)C1 (stereo not shown) [CBK286506],88.4%
11,Cc1ccc(S(=O)(=O)Nc2nnc(SCC(=O)Nc3ccc4c(c3)OCO4)s2)cc1 [CBK026675],100%
12,FC(F)(F)c1ccnc(Sc2cccc(Cl)c2)c1 [CBK115234],94.8%
13,Cc1cc(NC(=O)c2cc([N+](=O)[O-])ccc2Cl)nc2c1c(=O)oc1ccccc12 [CBK291258],90.8%
14,COc1cccc(N(CC(=O)Nc2ccc(C)c(C)c2)S(=O)(=O)c2ccc(C)cc2)c1 [CBK263761],103%
15,COc1ccc(-n2ncc(-c3ccc(C(F)(F)F)cc3)n2)cc1 [CBK112688],92.4%
16,O=C(c1ccsc1NS(=O)(=O)c1ccc2ccccc2c1)N1CCOCC1 [CBK042278],93.7%
17,CCn1nc(C)c(NC(=O)CN(C)Cc2ccccc2C(F)(F)F)c1C [CBK306771],106%
18,COC(=O)c1sc2cc(C(F)(F)F)cnc2c1-c1cccnc1 [CBK089885],112%
19,COCCN1C(=O)CC2(C1=O)C(=O)N(CC(=O)c1ccccc1)c1ccccc12 (stereo not shown) [CBK075875],99%
20,Cc1c(Nc2ncnc3sc4c(c23)CCCC4)c(=O)n(-c2ccccc2)n1C [CBK093912],93.1%
21,CCOc1ccc(NC(=O)COc2ccccc2/C=C/C(=O)O)cc1 [CBK286935],96.6%
22,COc1ccc(C(=O)[C@@H]2CCCN(C(=O)OC(C)(C)C)C2)cc1 [CBK284308],98.7%

row,SMILES,"viability at 28.5 h, 10 µM"
1,CCOc1nc(NCCC2=CCCCC2)nc(OCC)n1 [CBK027387],86.9%
2,CCOC(=O)c1cnn2c(O)cc(CN3CCc4ccccc4C3)nc12 [CBK305679],97.2%
3,Cc1cccnc1C(Cc1ccsc1)NC(=O)Cn1ccnc1 (stereo not shown) [CBK284802],94.1%
4,CN(C)S(=O)(=O)c1ccc(C(=O)Nc2cccc(N3Cc4ccccc4C3)c2)cc1 [CBK266025],98.8%
5,COC(=O)c1c(NC(=O)c2cnccn2)sc2c1CCC(C)C2 (stereo not shown) [CBK262654],96.2%
6,Cc1cnc2[nH]c(C(F)(F)F)c(CN3CCN(C)CC3)c2c1 [CBK284765],92.3%
7,CN1CCN(Cc2c(-c3ccc(F)cc3)[nH]c3ncccc23)CC1 [CBK285335],85.4%
8,O=C(O)c1ccc(S(=O)(=O)NCC2CCCO2)cc1 (stereo not shown) [CBK262364],79.8%
9,COc1cccc(C2(O)CCC3CN(C(C)=O)CC32)c1 (stereo not shown) [CBK283222],95.8%
10,COc1ccc(/C(C)=N/NC(=N)SC2CC(=O)N(c3ccc(C(=O)O)cc3)C2=O)cc1F (stereo not shown) [CBK262805],107%
11,CCOc1nc(Nc2nc(-c3ccccc3)cs2)nc(OCC)n1 [CBK262442],98.1%
12,CCC(=O)NC(c1ccc(C)cc1)c1cc([N+](=O)[O-])c2cccnc2c1O (stereo not shown) [CBK265048],121%
13,Cc1oc2ccc(NS(=O)(=O)c3ccccc3)cc2c1C(=O)O [CBK287071],95.3%
14,Nc1cccc(Oc2ccc3c(c2)C(=O)N(CCC(=O)O)C3=O)c1 [CBK287186],94.1%
15,CCn1nc(C)c(CNC(=O)N(Cc2ccccn2)CC(C)C)c1C [CBK304193],92.1%
16,COc1ccc([C@H]2CN(Cc3ccccc3)[C@@H]3CCN(C(=O)c4ccccc4)C[C@H]23)cc1 [CBK285550],86.6%
17,C(=C\c1cccc(N2CCN(CCN3CCCC3)CC2)n1)/c1ccccc1 [CBK036853],97.8%
18,CSc1cccc(NC(=O)CN(C)S(=O)(=O)c2ccc3ccccc3c2)c1 [CBK266708],86.2%
19,COc1ccc(CCC(=O)N2CCCc3c(cnn3C)C2)cc1 [CBK285326],111%
20,CN1CCN(c2nccnc2OCC2COc3ccccc3O2)CC1 (stereo not shown) [CBK003899C],96.7%
21,O=C(c1ccccc1F)N1C2CCC1CC(O)(c1cccnc1F)C2 (stereo not shown) [CBK284420],98.4%
22,Cc1nc(N)sc1-c1nnc(SC/C=C/c2ccccc2)n1C [CBK269383],81.7%
